This note sets out measurements from US8987170B2, “Succinimide compound” (Sumitomo Chemical Company, Limited, priority 2013, dated 2015).

Common to all, as to assay type: cell-based
The test system of assay [1] is Pythium zingiberis. Nature of the assay: Antibacterial test on Pythium zingiberis (Test Example 2), comparison with comparative compound. To be noted: 96 h, 500 ppm in PDA medium, cultured at 27° C. for 4 days, read-out: Mycelium growth inhibition rate (%). As to the method:
A predetermined amount of Compound (1) was dissolved in dimethyl sulfoxide, and the resulting solution was added to a potato dextrose agar medium (PDA medium) so as to have a final concentration of 500 ppm. Separately, an agar piece containing bacteria cut out from the bacterial flora peripheral part of Pythium zingiberis pre-cultured in an additive-free PDA medium was inoculated on the PDA medium containing Compound (1), and cultured at 27° C. for 4 days, and then the mycelium growth inhibition rate was measured by Expression 1. In addition, the test was conducted in the same manner, using N-[7-fluoro-3,4-dihydro-3-oxo-4-(2-propynyl)-2H-1,4-benzoxazin-6-yl]cyclohex-1-ene-1,2-dicarboxamide as a comparative example, in place of Compound (1).

A further assay has as its system Pythium debaryanum. Nature of the assay: Antibacterial test on Pythium debaryanum, mycelium growth state on PDA medium. The following applies: predetermined concentration in PDA medium; cultured at 27° C. As to the method:
A predetermined amount of Compound (1) was dissolved in dimethyl sulfoxide, and the resulting solution was added to a potato dextrose agar medium (PDA medium) so as to have a final concentration of predetermined concentration. Separately, an agar piece containing bacteria cut out from the bacterial flora peripheral part of Pythium debaryanum pre-cultured in an additive-free PDA medium was inoculated on the PDA medium containing Compound (1), and cultured at 27° C., and then the mycelium growth state was observed.

Assay [2] relates to Pythium zingiberis. Nature of the assay: Antibacterial test on Pythium zingiberis (Test Example 1), mycelium growth on PDA medium. The following applies: 500 ppm in PDA medium. As to the method:
A predetermined amount of Compound (1) was dissolved in dimethyl sulfoxide, and the resulting solution was added to a potato dextrose agar medium (PDA medium) so as to have a final concentration of 500 ppm. Separately, an agar piece containing bacteria cut out from the bacterial flora peripheral part of Pythium zingiberis pre-cultured in an additive-free PDA medium was inoculated on the PDA medium containing Compound (1), and cultured at 12° C. or 27° C., and then the mycelium growth inhibition rate was measured by the following Expression 1: Mycelium growth inhibition rate(%)=100−(Diameter of bacterial flora in added medium)/(Diameter of bacterial flora in additive-free medium)×100 Expression 1

The structures appear in SMILES notation.

Turning to `C#CCN1C(=O)COc2cc(F)c(N3C(=O)C4CC=CCC4C3=O)cc21` (stereo not shown) [Compound (1), N-[7-fluoro-3,4-dihydro-3-oxo-4-(2-propynyl)-2H-1,4-benzoxazin-6-yl]cyclohex-4-ene-1,2-dicarboxamide], the inhibition at 500 ppm in the assay with Pythium zingiberis [1] worked out at 50%; in the assay with Pythium zingiberis [2] (24 h, culture temperature 27° C., observation Day 1, read-out: Mycelium growth inhibition rate (%)), 53%; in the assay on Pythium zingiberis [2] (96 h, culture temperature 12° C., observation Day 4, read-out: Mycelium growth inhibition rate (%)), 100%. Further, the “effect of controlling Pythium debaryanum (mycelium growth state observed)” value with Pythium debaryanum is reported as “has an effect of controlling Pythium debaryanum”.
